Assay results published in ChEMBL document CHEMBL1144881, “3,6-dibromocarbazole piperazine derivatives of 2-propanol as first inhibitors of cytochrome c release via Bax channel modulation” (J Med Chem, 2003).

Key:
HeLa [1] = experiment: In vitro inhibition of cytochrome C release in isolated mitochondria by the compound was determined; assay type: functional, Homo sapiens; set-up: concentration or dose not given beside the values
[2] = biological target: Apoptosis regulator BAX (Homo sapiens) (UniProt Q07812); experiment: cells
HeLa [3] = experiment: cells; assay type: functional; settings: Homo sapiens
Description: In vitro inhibition of cytochrome C release in isolated mitochondria by the compound at a concentration of 10 uM was determined

HeLa [4] = experiment: cells; assay type: functional; settings: Homo sapiens; remark: listed apart in the source
Description: In vitro inhibition of cytochrome C release in isolated mitochondria by the compound at a concentration of 20 uM was determined

HeLa [5] = experiment: cells; assay type: functional; settings: Homo sapiens; remark: listed apart in the source

| IC50 [2] | Structure (SMILES) | Inhibition (HeLa [1]) | inhibition at 10 µM (HeLa [3]) | inhibition at 20 µM (HeLa [4]) | inhibition at 5 µM (HeLa [5]) |
| --- | --- | --- | --- | --- | --- |
| 480 nM | OC(CN1CCN(Cc2ccc(F)cc2)CC1)Cn1c2ccc(Br)cc2c2cc(Br)ccc21 (stereo not given) | 65% | – | – | – |
| 1270 nM | O=C(Nc1ccc(F)cc1)N1CCN(CC(O)Cn2c3ccc(Br)cc3c3cc(Br)ccc32)CC1 (stereo not given) | 15% | – | – | – |
| 680 nM | FC(F)(CN1CCNCC1)Cn1c2ccc(Br)cc2c2cc(Br)ccc21 | – | 83% | 96% | 61% |
| 470 nM | OC(CN1CCN(CCN2CCOCC2)CC1)Cn1c2ccc(Br)cc2c2cc(Br)ccc21 (stereo not given) | – | 74% | 95% | 21% |
| – | OC(CN1CCNCC1)Cn1c2ccc(Br)cc2c2cc(Br)ccc21 (stereo not given) | – | 94% | 99% | 77% |
| 290 nM | O=C(CN1CCNCC1)Cn1c2ccc(Br)cc2c2cc(Br)ccc21 | 71% | – | – | – |
| 370 nM | COc1ccc(CN2CCN(CC(O)Cn3c4ccc(Br)cc4c4cc(Br)ccc43)CC2)cc1 (stereo not given) | – | 82% | 99% | 61% |
| 2380 nM | OC(CN1CCN(c2ccc(F)cc2)CC1)Cn1c2ccc(Br)cc2c2cc(Br)ccc21 (stereo not given) | 15% | – | – | – |
| 960 nM | NC(CN1CCNCC1)Cn1c2ccc(Br)cc2c2cc(Br)ccc21 (stereo not given) | 71% | – | – | – |
